# Source: ChEMBL document CHEMBL1201862, “PubChem BioAssay data set” (2004)
# Calls of active or inactive are those of the source. No stated cut-off is given here; in the data, actives have a measured IC50 and inactives only a lower limit.
# Target: Envelope glycoprotein gp160 (Human immunodeficiency virus 1, UniProt Q6QLK5)
# Assay: inhibitors of HIV fusion peptide binding, primary screen, biochemical, uHTS, fluorescence dequenching (AID 1986)
# Envelope glycoprotein gp160, sequence (Q6QLK5 whole entry, the tested form may be a part): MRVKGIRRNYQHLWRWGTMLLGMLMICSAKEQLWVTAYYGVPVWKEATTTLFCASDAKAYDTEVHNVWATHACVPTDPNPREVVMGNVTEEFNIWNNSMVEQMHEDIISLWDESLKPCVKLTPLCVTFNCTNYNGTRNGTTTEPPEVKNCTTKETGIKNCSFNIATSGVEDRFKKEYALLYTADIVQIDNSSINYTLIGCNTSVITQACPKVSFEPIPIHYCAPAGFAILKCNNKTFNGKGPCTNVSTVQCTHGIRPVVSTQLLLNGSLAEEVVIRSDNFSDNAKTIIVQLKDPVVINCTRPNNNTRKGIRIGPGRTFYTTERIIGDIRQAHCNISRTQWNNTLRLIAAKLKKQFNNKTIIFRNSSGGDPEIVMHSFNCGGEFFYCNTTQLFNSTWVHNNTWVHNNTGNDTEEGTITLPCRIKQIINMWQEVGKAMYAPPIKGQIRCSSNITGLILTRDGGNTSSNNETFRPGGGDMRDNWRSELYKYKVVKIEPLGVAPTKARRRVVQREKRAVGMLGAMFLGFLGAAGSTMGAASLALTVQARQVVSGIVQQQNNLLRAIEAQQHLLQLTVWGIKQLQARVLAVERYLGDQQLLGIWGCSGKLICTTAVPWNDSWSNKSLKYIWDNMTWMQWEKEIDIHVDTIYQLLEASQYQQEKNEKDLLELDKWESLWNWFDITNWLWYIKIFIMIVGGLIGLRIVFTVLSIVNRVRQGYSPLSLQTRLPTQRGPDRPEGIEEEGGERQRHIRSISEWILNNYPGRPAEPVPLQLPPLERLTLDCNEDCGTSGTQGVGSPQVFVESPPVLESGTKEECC
row,Compound,IC50
1,COc1ccc(OC)c(N2C(=O)/C(=C/c3ccco3)C(=O)NC2=S)c1,12.6 µM (active)
2,N#Cc1c(O)nc(SCC(=O)N2c3ccccc3Sc3ccccc32)nc1-c1ccccc1,13.1 µM (active)
3,O=C1NN(c2ccc(Cl)cc2)C(=O)/C1=C\c1ccc(-c2cccc(C(=O)O)c2)o1,11.9 µM (active)
